Measured values from PubChem BioAssay AID1959 (Broad Institute, 2009).
Active and inactive are the calls of the source.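 Rule for the calls: active = growth-inhibition EC50 no more than tenfold above the top tested dose; inconclusive = flat fit between 30% and 70% inhibition, or unreliable fit; inactive = EC50 more than tenfold above the top tested dose.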

tested on: E. coli NEB5alpha growth, BacTiter-Glo luminescence, 4 h; test: Escherichia coli growth inhibition, dose response, counter-screen for MEX-5/POS-1 RNA-binding inhibitor project, luminescence, NEB5alpha (AID 1959);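 note: pUC19-transformed ampicillin-resistant cells grown in LB with ampicillin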

Compound | EC50
CCOc1ccc2nc3cc(NCc4ccc(OC)cc4)ccc3c(N)c2c1 | > 11 µM (inactive)
Cc1ccc(S(=O)(=O)C(C#N)c2nc3ccccc3nc2N2CCC(C)CC2)cc1 (stereo not drawn) | > 11 µM (inactive)
Oc1ccc(/C=N/Nc2ncnc3nc[nH]c23)cc1 | > 11 µM (inactive)
COc1ccc(N=Cc2cc3c(cc2O)OC(N)=C(C#N)C3c2ccccc2)cc1 (stereo not drawn) | > 11 µM (inactive)
COc1ccc2nc3ccccc3nc2c1NC(=O)c1ccc(Cl)cc1Cl | > 11 µM (inactive)
CCC(=O)OC1(C)C(=O)C=C2C=C(C3CC3)OC=C2C1=O (stereo not drawn) | > 11 µM (inactive)
COc1ccc(C2CC(c3cccs3)=NN2c2ccc(C=O)cc2)cc1 (stereo not drawn) | > 11 µM (inactive)
Cc1cccc(NC(=O)/C(C#N)=C\c2cc(C)n(-c3ccc(C(=O)O)cc3)c2C)c1 | > 11 µM (inactive)
Cc1ccc(Nc2ccc([N+](=O)[O-])ccc2=O)cc1 | > 11 µM (inactive)
Cc1c(/C=N/Nc2ccc(F)cc2)c(O)n(C)c(=O)c1C#N | > 11 µM (inactive)
O=C(O)CCc1ccc(-c2ccccc2)n1-c1cccc(C(=O)O)c1 | > 11 µM (inactive)
CCCCC1=CC2=C(c3ccco3)C(=O)C(C)(OC(=O)c3ccc(OC)cc3)C(=O)C2=CN1CCN1CCOCC1 (stereo not drawn) | > 11 µM (inactive)
C/C(CCc1oc2ccc(Cl)cc2c1-c1ccc(C)o1)=N\O | > 11 µM (inactive)
Cc1ccc(NC(=O)CSc2nnc(N)s2)cc1S(=O)(=O)N1CCOCC1 | > 11 µM (inactive)
CC1(C)CC(=O)C2=C(C1)OC(N)=C(C#N)C21C(=O)N2CCCc3cccc1c32 (stereo not drawn) | > 11 µM (inactive)
CC(=NC1CCCC1)c1c(C)[nH]n(-c2nc3ccccc3s2)c1=O | > 11 µM (inactive)
O=C(Cn1cc(C=C2C(=O)NC(=O)NC2=O)c2ccccc21)NCC1CCCO1 (stereo not drawn) | > 11 µM (inactive)
CCCSc1nnc(NC(=O)Nc2ccccc2)s1 | > 11 µM (inactive)
COC(=O)Cn1cc(/C=C2\C(=O)NC(=O)N(c3ccccc3)C2=O)c2ccccc21 | > 11 µM (inactive)
CCn1c(SCc2ccc(C)cc2)nnc1C1CCN(S(=O)(=O)c2ccc(OC)cc2)CC1 | > 11 µM (inactive)
O=C(O)c1cccc(-n2cccc2/C=C2/NC(=O)N(Cc3ccccc3F)C2=O)c1 | > 11 µM (inactive)
Oc1[nH]c2ccc(Br)cc2c1N=Nc1nn[nH]n1 | > 11 µM (inactive)
O=C(NNC(=O)c1cc(Cl)ccc1O)c1cccc(S(=O)(=O)N2CCOCC2)c1 | > 11 µM (inactive)

Compound | EC50
Cc1cc(C)cc(N2C(=O)/C(=C\c3ccc(N4CCN(C)CC4)o3)C(=O)NC2=S)c1 | > 11 µM (inactive)
CCOC(=O)c1cc(=O)n2nc(-c3ccc(C)cc3)nc2s1 | > 11 µM (inactive)
COc1ccc(-n2c(C)cc(/C=C3\SC(=S)N(Cc4ccco4)C3=O)c2C)cc1 | > 11 µM (inactive)
CCN(CC)S(=O)(=O)c1ccc(N=Cc2c(C)c(C#N)c(=O)n(C)c2O)cc1 | > 11 µM (inactive)
O=C(O)c1cc(O)c2c(c1)C(=O)c1cccc(O)c1C2=O | > 11 µM (inactive)
CCOc1cc(N2CCOCC2)c(OCC)cc1NC(C)C(=O)N1CCN(CC)CC1 (stereo not drawn) | > 11 µM (inactive)
N#CC(c1nc2ccccc2nc1OCCO)S(=O)(=O)c1ccccc1 (stereo not drawn) | > 11 µM (inactive)
O=C(O)c1ccc(-c2ccc(/C=C3\NC(=O)N(Cc4ccc(Cl)cc4)C3=O)o2)cc1Cl | > 11 µM (inactive)
CCOC(=O)c1c(-n2c(C)cc(C=C3C(=O)NC(=O)NC3=O)c2C)sc2c1CCCC2 | > 11 µM (inactive)
CSc1nc(=S)c2[nH]c(=S)[nH]c2[nH]1 | > 11 µM (inactive)
CC(C)(C)c1ccc(/C=C2\Oc3cc(O)ccc3C2=O)cc1 | > 11 µM (inactive)
Cc1nn(C(C)C(=O)N2CCOCC2)c(=O)c2nn(-c3ccccc3)c(C)c12 (stereo not drawn) | > 11 µM (inactive)
COC(=O)C1CSc2[nH]c(=O)sc2C1c1ccc(OC)c(OC)c1 (stereo not drawn) | > 11 µM (inactive)
CCOc1cc(C(c2c(C)[nH][nH]c2=O)c2c(C)[nH][nH]c2=O)cc([N+](=O)[O-])c1O | > 11 µM (inactive)
O=C(N/N=C/c1c(O)n(Cc2ccccc2)c(=O)[nH]c1=O)c1ccncc1 | > 11 µM (inactive)
C=Cc1c(C)c2cc3[nH]c(cc4nc(cc5nc(cc1[nH]2)C(C)=C5CCC(=O)O)C(CCC(=O)O)=C4C)c(C)c3C=C | > 11 µM (inactive)
COc1ccc(/C=C/C(=O)c2c(C)cc(C)[nH]c2=O)c2ccccc12 | > 11 µM (inactive)
C=CCn1c(=O)/c(=C\c2ccsc2)s/c1=C(/C#N)C(=O)NCCN1CCOCC1 | > 11 µM (inactive)
CC(C)CNC(=O)C1Nc2ccccc2C2C=CCC12 (stereo not drawn) | > 11 µM (inactive)
CN1Cc2c(c(C#N)c(N)n(C)c2=S)CC1(C)C | > 11 µM (inactive)
CC(Cc1ccc(O)c(O)c1)C(C)Cc1ccc(O)c(O)c1 (stereo not drawn) | > 11 µM (inactive)
N=c1c(S(=O)(=O)c2ccc(Cl)cc2)cc2c(=O)n3ccccc3nc2n1C1CCCC1 | > 11 µM (inactive)
Cc1cc([N+](=O)[O-])cc2c1NCC1CC=CC21 (stereo not drawn) | > 11 µM (inactive)

Compound | EC50
CN=c1scc(C)n1/N=C/c1ccc(O)c(O)c1O | > 11 µM (inactive)
c1ccc(-c2cn3nc(-c4ccccc4)c(-c4ccccc4)nc3n2)cc1 | > 11 µM (inactive)
CC1N(C)c2cccc3cccc(c23)N1C | > 11 µM (inactive)
CN1C(=O)c2ccccc2NC(=O)[C@]12O[C@@H]2c1cccc(O)c1 | > 11 µM (inactive)
O=C1CSC(=S)N1/N=C/c1ccc(Cl)c([N+](=O)[O-])c1 | > 11 µM (inactive)
O=c1oc2ccc(Cl)cc2nc1/C=C(\O)c1ccco1 | > 11 µM (inactive)
NC(=O)c1c(NC(=O)c2ccccc2)sc2c1CCN(Cc1ccccc1)C2 | > 11 µM (inactive)
O=C(O)c1cc(Cl)c2c(c1)[C@@H]1C=CC[C@@H]1[C@H](c1ccc(S(=O)(=O)N3CCOCC3)cc1)N2 | > 11 µM (inactive)
COC(=O)c1c(Cl)c2n3ccccc3c(C)c(-c3ccccc3)c-2c1C(=O)OC | > 11 µM (inactive)
O=C1NC(=S)N(c2ccc(F)cc2)C(=O)/C1=C/c1ccco1 | > 11 µM (inactive)
COc1ccc(C2c3ccc(O)cc3Oc3ncn(Cc4ccco4)c(=N)c32)cc1OC (stereo not drawn) | > 11 µM (inactive)
Cn1c(N=Nc2ccc(N3CCOCC3)cc2)[n+](C)c2ccccc21 | > 11 µM (inactive)
O=c1c(O)cccc2cc(O)c(O)c(O)c12 | > 11 µM (inactive)
N=C1/C(=C\c2ccc(SCc3ccco3)o2)C(=O)N=C2SC=NN12 | > 11 µM (inactive)
CCOC(=O)/C=c1\s/c(=C\c2ccc(C#N)cc2)c(=O)n1CC(=O)NCc1ccco1 | > 11 µM (inactive)
O=C1C=CC(=O)C(C2=C3C(=O)N(CCc4ccccc4)CC(=O)N3CCC2)=C1 | > 11 µM (inactive)
CC1(C)CC(=O)C2=C(C1)OC(N)=C(C#N)C2c1ccccc1OC(=O)N1CCOCC1 (stereo not drawn) | > 11 µM (inactive)
CN1CCc2cc3c(c4c2[C@H]1[C@H](O)c1ccccc1-4)OCO3 | > 11 µM (inactive)
CN1CCc2cccc3c2C1Cc1ccc(O)c(O)c1-3 (stereo not drawn) | > 11 µM (inactive)
Cn1c(O)c(C=Nc2ccc(N3CCOCC3)cc2)c(=O)n(C)c1=S | > 11 µM (inactive)
O=C(O)c1ccc2c(c1)C(=O)/C(=C\c1ccco1)C2=O | > 11 µM (inactive)
CC1C2C(C)N(C)C(=O)N(C)C2N(C)C(=O)N1C (stereo not drawn) | > 11 µM (inactive)
